These results are taken from ChEMBL document CHEMBL1765027, “5'-Modified pyrimidine nucleosides as inhibitors of ribonuclease A” (Bioorg Med Chem, 2011).

By Ki is commonly meant the equilibrium dissociation constant of an inhibitor or competing ligand from its target. High values mean weaker binding, low ones tighter binding. Broadly, the inhibition is the change of the read-out against control, counted positive when it falls.

SMILES strings stand for the structures. Active and inactive are the calls of the source. The calls are words filed in the database; no cut-off is given here.

For one test, the target named is T1, Ribonuclease pancreatic (Bos taurus) (UniProt P61823).
T1 sequence (whole entry): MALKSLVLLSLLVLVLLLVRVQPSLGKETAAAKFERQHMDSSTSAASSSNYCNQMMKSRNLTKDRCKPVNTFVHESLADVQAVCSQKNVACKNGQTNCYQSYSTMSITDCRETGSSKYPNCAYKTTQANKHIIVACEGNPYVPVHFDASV
The test is described as follows: Inhibition of bovine pancreatic RNase A-mediated degradation of yeast tRNA assessed as residual tRNA band at 0.09 mM preincubated for 3 hrs measured after 30 mins of addition of tRNA using ethidium bromide staining by agarose gel based assay.
Take `O=C(O)C1CCN(C[C@H]2O[C@@H](n3ccc(=O)[nH]c3=O)[C@H](O)[C@@H]2O)CC1`: the outcome was Active.
`Cc1cn([C@H]2C[C@H](O)[C@@H](CN3CCC(C(=O)O)CC3)O2)c(=O)[nH]c1=O`: the outcome was Active.
Same read-out and setting: the value for `Cc1cn([C@H]2C=C[C@@H](CN3CCC(C(=O)O)CC3)O2)c(=O)[nH]c1=O` was “Active”.
As to `Cc1cn([C@H]2C[C@@H](O)[C@@H](CN3CCC(C(=O)O)CC3)O2)c(=O)[nH]c1=O`, the outcome was Active.

In a further test the target is T1, Ribonuclease pancreatic (Bos taurus). The test can be described thus: Inhibition of bovine pancreatic RNase A-mediated degradation of yeast tRNA assessed as residual tRNA band at 0.18 mM preincubated for 3 hrs measured after 30 mins of addition of tRNA using ethidium bromide staining by agarose gel based assay.
Turning to `O=C(O)C1CCN(C[C@H]2O[C@@H](n3ccc(=O)[nH]c3=O)[C@H](O)[C@@H]2O)CC1`, the result was Active.
Consider `Cc1cn([C@H]2C[C@H](O)[C@@H](CN3CCC(C(=O)O)CC3)O2)c(=O)[nH]c1=O`, for which the outcome was Active.
The same measure, in the same setting: the value for `Cc1cn([C@H]2C=C[C@@H](CN3CCC(C(=O)O)CC3)O2)c(=O)[nH]c1=O` was “Active”; that for `Cc1cn([C@H]2C[C@@H](O)[C@@H](CN3CCC(C(=O)O)CC3)O2)c(=O)[nH]c1=O` was “Active”.

For a further test, the target named is T2, Ribonuclease pancreatic (Bos taurus, UniProt P61823).
T2 sequence (P61823 whole entry): T1 sequence (whole entry)
The test is described as follows: Inhibition of bovine pancreatic RNase A using 2',3'-cCMP as a substrate by Lineweaver-Burk analysis.
As to `O=C(O)C1CCN(C[C@H]2O[C@@H](n3ccc(=O)[nH]c3=O)[C@H](O)[C@@H]2O)CC1`, the affinity corresponds to a Ki of 75 µM.
Turning to `Cc1cn([C@H]2C[C@H](O)[C@@H](CN3CCC(C(=O)O)CC3)O2)c(=O)[nH]c1=O`, the affinity, expressed as Ki, was 162 µM.
`Cc1cn([C@H]2C=C[C@@H](CN3CCC(C(=O)O)CC3)O2)c(=O)[nH]c1=O` displayed an inhibition constant Ki of 250 µM.
Regarding `Cc1cn([C@H]2C[C@@H](O)[C@@H](CN3CCC(C(=O)O)CC3)O2)c(=O)[nH]c1=O`, the Ki was 229 µM.

In a further test the target is T1, Ribonuclease pancreatic (Bos taurus). The test is described as follows: Inhibition of bovine pancreatic RNase A-mediated degradation of yeast tRNA assessed as residual tRNA band at 0.27 mM preincubated for 3 hrs measured after 30 mins of addition of tRNA using ethidium bromide staining by agarose gel based assay.
Regarding `O=C(O)C1CCN(C[C@H]2O[C@@H](n3ccc(=O)[nH]c3=O)[C@H](O)[C@@H]2O)CC1`, the result was Active.
Turning to `Cc1cn([C@H]2C[C@H](O)[C@@H](CN3CCC(C(=O)O)CC3)O2)c(=O)[nH]c1=O`, the outcome was Active.
For `Cc1cn([C@H]2C=C[C@@H](CN3CCC(C(=O)O)CC3)O2)c(=O)[nH]c1=O`, the outcome was Active.
For `Cc1cn([C@H]2C[C@@H](O)[C@@H](CN3CCC(C(=O)O)CC3)O2)c(=O)[nH]c1=O`, the result was Active.

In the next test the target is T2, Ribonuclease pancreatic. The test can be described thus: Inhibition of bovine pancreatic RNase A using 2',3'-cCMP as a substrate by Dixon plot analysis.
Take `O=C(O)C1CCN(C[C@H]2O[C@@H](n3ccc(=O)[nH]c3=O)[C@H](O)[C@@H]2O)CC1`: the inhibition constant Ki turned out to be 61 µM.
Turning to `Cc1cn([C@H]2C[C@H](O)[C@@H](CN3CCC(C(=O)O)CC3)O2)c(=O)[nH]c1=O`, the inhibitory constant (Ki) stood at 121 µM.
As for `Cc1cn([C@H]2C[C@@H](O)[C@@H](CN3CCC(C(=O)O)CC3)O2)c(=O)[nH]c1=O`, the inhibition constant (Ki) was 183 µM.

Another test addresses T1, Ribonuclease pancreatic (Bos taurus). The test is described as follows: Inhibition of bovine pancreatic RNase A ribonucleolytic activity assessed as reduction of yeast tRNA degradation at 0.27 mM preincubated for 2 hrs by precipitation assay.
Consider `O=C(O)C1CCN(C[C@H]2O[C@@H](n3ccc(=O)[nH]c3=O)[C@H](O)[C@@H]2O)CC1`, for which the inhibition was 37%.
Turning to `Cc1cn([C@H]2C[C@H](O)[C@@H](CN3CCC(C(=O)O)CC3)O2)c(=O)[nH]c1=O`, the inhibition is 23%.
The same measure, in the same setting: the figure for `Cc1cn([C@H]2C=C[C@@H](CN3CCC(C(=O)O)CC3)O2)c(=O)[nH]c1=O` is 14%; for `Cc1cn([C@H]2C[C@@H](O)[C@@H](CN3CCC(C(=O)O)CC3)O2)c(=O)[nH]c1=O` it is 18%.

A further test concerns the target T2, Ribonuclease pancreatic. The test is described as follows: Inhibition of bovine pancreatic RNase A at pH 5.9 by spectrophotometric method.
`Nc1ncnc2c1ncn2[C@@H]1O[C@H](CO)[C@@H](OP(=O)(O)OC[C@H]2O[C@@H](n3ccc(=O)[nH]c3=O)C[C@@H]2OP(=O)(O)OP(=O)(O)O)[C@H]1O` showed an inhibition constant Ki of 0.027 µM.
